One experiment relates to other cell lines. Also on record: method as in not given. The note with it: reported for TLD1433 with other cell lines; ref not given; cited from earlier work.
Experiment [1] deals with CRMM1 cells injected behind the eye (RO) of zebrafish embryos. In words: Zebrafish orthotopic CM tumour model, CRMM1. It counts as in vivo, Zebrafish (Danio rerio). Conditions: for PI (Fluorescence Intensity) / PI (Tumour Area) / Relative Tumour Burden as Measured by Fluorescence Intensity / Tumour Area: CRMM1, Orthotopic Model; for PI (Fluorescence Intensity) / PI (Tumour Area): 0 vs 114 J.cm^−2. Here is the method: The zebrafish ectopic conjunctival melanoma tumour model has been described previously. In this model, around 200 fluorescent CM cells are injected into the Duct of Cuvier at 2 dpf, and then disseminate through the blood circulation and grow in the head and tail. To establish the orthotopic tumour model, around 100 red, (td)Tomato fluorescent CRMM1 or CRMM2 cells were injected RO at 2 dpf into tg(Fli:GFP/Casper), endothelial reporter transgenic zebrafish with green fluorescent vasculature and examined by fluorescent microscopy at day 1 and 4 after engraftment (Figure 6A). Tumour expansion at the injection site was measured as fluorescence intensity and tumour area.
For cancer cell injection, two days post-fertilization (dpf), dechorionated zebrafish embryos were anaesthetized with 0.003% tricaine (Sigma) and plated on a 10 cm Petri dish covered with 1.5% of solidified agarose. CRMM1 and CRMM2 cells were suspended in PBS containing 2% polyvinylpyrrolidone (PVP; Sigma-Aldrich) with a concentration of 50,000 cells/µL and loaded into borosilicate glass capillary needles (1 mm O.D. × 0.78 mm I.D.; Harvard Apparatus). In the ectopic model, 200 (td)Tomato fluorescent CM cells were injected into the Duct of Cuvier or at 2 dpf, which led to dissemination through the blood circulation and outgrowth in the head and tail. In orthotopic tumour model, 100 (td)Tomato fluorescent CRMM1 or CRMM2 cells were injected RO in 2 dpf embryos using a Pneumatic Picopump and a manipulator (WPI). After injection, the embryos were incubated in a 34 °C incubator. Images were acquired at 1-, 2- and 4-days post injection (dpi) with a Leica M165 FC stereo fluorescence microscope. Tumor growth was quantified by calculating the total fluorescence intensity and area with the ZF4 pixel counting program (Leiden). Each experiment was performed at least 3 times with a group size of >30 embryos.
Fluorescent CRMM1 and CRMM2 cells were injected at 2 dpf into the Duct of Cuvier (ectopic model) and behind the eye (orthotopic model) and TLD1433 was delivered by WA, IV and RO administration with or without a light treatment as described in 4.8. For the WA administration, the 4.6 nM TLD1433 solution was added to the tumour cells injected zebrafish at 2.5, 3.5, 4.5, 5.5 dpf and maintained for 12 h. At 3, 4, 5, 6 dpf, the fish water was refreshed, and after 1 h, embryos were exposed to green light for 90 min (21 mW/cm^2, 114 J/cm^2, 520 nm). For the IV and RO administration, 1 nL of 2.3 mM TLD1433 solution was injected via the dorsal vein or the RO site at 3, 4, 5, 6 dpf. After 1 h interval, the embryos were exposed to green light for 90 min (21 mW/cm^2, 114 J/cm^2, 520 nm). After treatment, the embryos images were acquired with a Leica M165 FC stereo fluorescence microscope. Tumor growth was quantified by calculating the total fluorescence intensity and area with the ZF4 pixel counting program (Leiden). Each experiment was performed at least 3 times with a group size of >30 embryos.

Where [2] appears, read: Intravenous (1 nL of 2.3 mM), Light Dose 0 J.cm^−2, vs control dark group (100%).
The mark [3] stands for this setting: Intravenous (1 nL of 2.3 mM), Light Dose 114 J.cm^−2, vs control dark group (100%).
Setting [4] is: Water (4.6 nM), Light dose 0 J.cm^−2, vs control dark group (100%).
[5] abbreviates: Water (4.6 nM), Light dose 114 J.cm^−2, vs control dark group (100%).
Setting [6] is: CRMM1, orthotopic model, RO 2.3 mM, green light 114 J.cm^−2.

Some results are limits rather than exact numbers.

`Cc1ccnc(-c2cc(C)ccn2)c1.Cc1ccnc(-c2cc(C)ccn2)c1.[Cl-].[Cl-].[Ru+2].c1csc(-c2ccc(-c3ccc(-c4nc5c6cccnc6c6ncccc6c5[nH]4)s3)s2)c1` [TLD1433]: the PI in the experiment with other cell lines is given as over 1000. The “PI (Fluorescence Intensity)” value is on record as 0.82 in experiment [1] (Intravenous (1 nL of 2.3 mM)), 1.8 in experiment [1] (Retro-orbital (1 nL of 2.3 mM)) and 1.0 in experiment [1] (Water (4.6 nM)). Also, the “PI (Tumour Area)” value in experiment [1] (Intravenous (1 nL of 2.3 mM)) amounted to 0.87; in experiment [1] (Retro orbital (1 nL of 2.3 mM)), 4.1; in experiment [1] (Water (4.6 nM)), 1.0. The “Relative Tumour Burden as Measured by Fluorescence Intensity” value came out at 91% in experiment [1] (setting [2]); 111% in experiment [1] (setting [3]); 120% in experiment [1] (Retro-orbital (1 nL of 2.3 mM), Light Dose 0 J.cm^−2, vs control dark group (100%)); 65% in experiment [1] (Retro-orbital (1 nL of 2.3 mM), Light Dose 114 J.cm^−2, vs control dark group (100%)); 96% in experiment [1] (setting [4]); 96% in experiment [1] (setting [5]). For the same compound, the “Tumour Area” value in experiment [1] (setting [2]) was 109%; in experiment [1] (setting [3]), 126%; in experiment [1] (Retro orbital (1 nL of 2.3 mM), Light dose 0 J.cm^−2, vs control dark group (100%)) it was 125%; in experiment [1] (Retro orbital (1 nL of 2.3 mM), Light dose 114 J.cm^−2, vs control dark group (100%)), 31%; in experiment [1] (setting [4]), 90%; in experiment [1] (setting [5]), 89%. Also, the diminished fluorescence intensity in experiment [1] (setting [6]) was 35%. This compound also displayed a diminished tumour area in experiment [1] (setting [6]) of 69%. The “effect on tumour burden (in words)” value in experiment [1] (CRMM1, orthotopic model, WA at the MTD (4.6 nM), light 114 J.cm^−2) is “did not inhibit tumour burden”.
